Experimental data: PMC12396409, “Screening and hit evaluation of a microbial metabolite library against the pathogenic Plasmodium falciparum and Toxoplasma gondii parasites” (International Journal for Parasitology: Drugs and Drug …, 2025)
Read-outs that look alike come from different tables or passages of the source.

Columns and labels:
[1] = test system: T. gondii RH strain (RH-Tub-eYFP) tachyzoites; experiment: microbe, parasite or virus in culture; assay type: cell-based, Toxoplasma gondii; details: 72 h; for percent parasite growth at 2 µg/mL: Toxoplasma gondii
[2] = test system: P. falciparum 3D7 parasites; experiment: P. falciparum growth inhibition assay, 1-cycle (72 h treatment), SYBR DNA staining (library screen at 2 μg/mL and dose-response); assay type: cell-based, Plasmodium falciparum; details: for activity at 2 µg/mL: Plasmodium falciparum
[3] = test system: P. falciparum 3D7 parasites; experiment: P. falciparum growth inhibition assay, 2-cycle (120 h treatment), delayed-death screen and dose-response; assay type: cell-based, Plasmodium falciparum; details: for activity at 2 µg/mL: Plasmodium falciparum
[4] = T. gondii, screen at 2 μg/mL, replicate 1
[5] = T. gondii, screen at 2 μg/mL, replicate 2
[6] = P. falciparum, 72 h, screen at 2 μg/mL, replicate 1
[7] = P. falciparum, 72 h, screen at 2 μg/mL, replicate 2
[8] = P. falciparum, 120 h, screen at 2 μg/mL, replicate 1
[9] = P. falciparum, 120 h, screen at 2 μg/mL, replicate 2
[10] = T. gondii, screen at 2 μg/mL, replicate 1, read-out: Tg_72h_%Growth_Rep1
[11] = T. gondii, screen at 2 μg/mL, replicate 2, read-out: Tg_72h_%Growth_Rep2
[12] = 3D7, P. falciparum, 72 h, screen at 2 μg/mL, replicate 1, read-out: Pf_72h_%Growth_Rep1
[13] = 3D7, P. falciparum, 72 h, screen at 2 μg/mL, replicate 2, read-out: Pf_72h_%Growth_Rep2
[14] = 3D7, P. falciparum, 120 h, screen at 2 μg/mL, replicate 1, read-out: Pf_120h_%Growth_Rep1
[15] = 3D7, P. falciparum, 120 h, screen at 2 μg/mL, replicate 2, read-out: Pf_120h_%Growth_Rep2
[16] = T. gondii, parasite screen at 2 μg/mL, % growth, replicate 1
[17] = T. gondii, parasite screen at 2 μg/mL, % growth, replicate 2
[18] = P. falciparum 3D7, 72 h, parasite screen at 2 μg/mL, % growth, replicate 1
[19] = P. falciparum 3D7, 72 h, parasite screen at 2 μg/mL, % growth, replicate 2
[20] = P. falciparum 3D7, 120 h, parasite screen at 2 μg/mL, % growth, replicate 1
[21] = P. falciparum 3D7, 120 h, parasite screen at 2 μg/mL, % growth, replicate 2

SMILES: C[C@H]1CCC/C=C/C(=O)c2c(O)cc(O)cc2CC(=O)O1 [Dehydrocurvularin, 10,11-]
- Tg_72h_%Growth_Rep1 [1, 4]: 4.20%
- Tg_72h_%Growth_Rep2 [1, 5]: 2.39%
- Pf_72h_%Growth_Rep1 [2, 6]: 4.73%
- Pf_72h_%Growth_Rep2 [2, 7]: 1.02%
- Pf_120h_%Growth_Rep1 [3, 8]: 13.56%
- Pf_120h_%Growth_Rep2 [3, 9]: 16.52%

SMILES: C=C1[C@@H](C)[C@H]2[C@H](Cc3ccccc3)NC(=O)[C@]23[C@H](OC(C)=O)/C=C/[C@@](C)(O)C(=O)[C@@H](C)C/C=C/[C@H]3[C@@H]1O [Cytochalasin D]
- percent parasite growth at 2 µg/mL [1, 10]: 2.17%
- percent parasite growth at 2 µg/mL [1, 11]: 2.65%
- activity at 2 µg/mL ([2]; 3D7, 72 h, P. falciparum, 72 h, screen at 2 μg/mL, replicate 1, read-out: Pf_72h_%Growth_Rep1): 6.33%
- activity at 2 µg/mL ([2]; 3D7, 72 h, P. falciparum, 72 h, screen at 2 μg/mL, replicate 2, read-out: Pf_72h_%Growth_Rep2): 2.44%
- activity at 2 µg/mL ([3]; 3D7, 120 h, P. falciparum, 120 h, screen at 2 μg/mL, replicate 1, read-out: Pf_120h_%Growth_Rep1): 3.12%
- activity at 2 µg/mL ([3]; 3D7, 120 h, P. falciparum, 120 h, screen at 2 μg/mL, replicate 2, read-out: Pf_120h_%Growth_Rep2): 4.41%

SMILES: CC[C@H]1OC(=O)C[C@@H](O)[C@H](C)[C@@H](O[C@@H]2O[C@H](C)[C@@H](O)[C@H](N(C)C)[C@H]2O)[C@@H](CCN2CCCCC2)C[C@@H](C)C(=O)/C=C/C(C)=C/[C@@H]1CN1CCCCC1 [Tildipirosin]
- percent parasite growth at 2 µg/mL ([1]; read-out: Tg_72h_%Growth_Rep1): 87.8%
- percent parasite growth at 2 µg/mL ([1]; read-out: Tg_72h_%Growth_Rep2): 85.6%
- activity at 2 µg/mL [2, 12]: 10.8%
- activity at 2 µg/mL [2, 13]: 5.94%
- activity at 2 µg/mL [3, 14]: 9.99%
- activity at 2 µg/mL [3, 15]: 11.7%

SMILES: CC(/C=C/C(=O)NO[C@@H]1O[C@H](CO)[C@@H](O)[C@H](O)[C@H]1O)=C\[C@@H](C)C(=O)c1ccc(N(C)C)cc1 [Trichostatin C]
- Tg_72h_%Growth_Rep1 [1, 4]: 87.04%
- Tg_72h_%Growth_Rep2 [1, 5]: 108.99%
- Pf_72h_%Growth_Rep1 [2, 6]: 75.18%
- Pf_72h_%Growth_Rep2 [2, 7]: 84.35%
- Pf_120h_%Growth_Rep1 [3, 8]: 157.32%
- Pf_120h_%Growth_Rep2 [3, 9]: 88.61%

SMILES: NC(=O)c1cccc2nc3ccccc3nc12 [BIA-O1527]
- Tg_72h_%Growth_Rep1 [1, 16]: 111.76%
- Tg_72h_%Growth_Rep2 [1, 17]: 91.86%
- Pf_72h_%Growth_Rep1 [2, 18]: 73.74%
- Pf_72h_%Growth_Rep2 [2, 19]: 112.20%
- Pf_120h_%Growth_Rep1 [3, 20]: 104.27%
- Pf_120h_%Growth_Rep2 [3, 21]: 111.59%

SMILES: CC=CC(C)=CC(C)C(=O)CC(O)CC1CC(=O)NC(=O)C1 (stereo not drawn) [BIA-M1404]
- Tg_72h_%Growth_Rep1 [1, 16]: 4.29%
- Tg_72h_%Growth_Rep2 [1, 17]: 7.26%
- Pf_72h_%Growth_Rep1 [2, 18]: 71.61%
- Pf_72h_%Growth_Rep2 [2, 19]: 88.22%
- Pf_120h_%Growth_Rep1 [3, 20]: 85.21%
- Pf_120h_%Growth_Rep2 [3, 21]: 78.18%

SMILES: C/C=C/C1=CC(=O)[C@@H](O)[C@@H]1O [Terrein]
- percent parasite growth at 2 µg/mL [1, 10]: 125%
- percent parasite growth at 2 µg/mL [1, 11]: 83.6%
- activity at 2 µg/mL [2, 12]: 77.7%
- activity at 2 µg/mL [2, 13]: 91.3%
- activity at 2 µg/mL [3, 14]: 82%
- activity at 2 µg/mL [3, 15]: 46.1%

SMILES: CC1=C[C@]2(C)/C=C(C)/C=C/C[C@@H](O)/C=C3C=C/C(=C4\C(=O)O[C@]2(C[C@@H]1C)C4=O)OC/3 [Spirohexenolide A]
- Tg_72h_%Growth_Rep1 ([1]; T. gondii, parasite screen 2 μg/mL, % growth, replicate 1): 115.19%
- Tg_72h_%Growth_Rep2 ([1]; T. gondii, parasite screen 2 μg/mL, % growth, replicate 2): 70.63%
- Pf_72h_%Growth_Rep1 ([2]; P. falciparum, 72 h, parasite screen 2 μg/mL, % growth, replicate 1): 8.85%
- Pf_72h_%Growth_Rep2 ([2]; P. falciparum, 72 h, parasite screen 2 μg/mL, % growth, replicate 2): 0.46%
- Pf_120h_%Growth_Rep1 ([3]; P. falciparum, 120 h, parasite screen 2 μg/mL, % growth, replicate 1): 19.42%
- Pf_120h_%Growth_Rep2 ([3]; P. falciparum, 120 h, parasite screen 2 μg/mL, % growth, replicate 2): -9.19%

SMILES: C=C1[C@@H](C)[C@H]2[C@H](Cc3ccccc3)NC(=O)[C@]23OC(=O)/C=C/C(=O)CCC[C@@H](C)C/C=C/[C@H]3[C@@H]1O [Cytochalasin A]
- Tg_72h_%Growth_Rep1 [1, 4]: 2.84%
- Tg_72h_%Growth_Rep2 [1, 5]: 2.30%
- Pf_72h_%Growth_Rep1 [2, 6]: 14.20%
- Pf_72h_%Growth_Rep2 [2, 7]: 12.98%
- Pf_120h_%Growth_Rep1 [3, 8]: 0.48%
- Pf_120h_%Growth_Rep2 [3, 9]: 6.78%
